Experimental findings from PubChem BioAssay AID248 (DTP/NCI, 2004) are described below.

The structures appear in SMILES notation. Several values for one entry are separate records, joined by “and”; a condition that tells them apart may be missing. Identical values can stand only once. Inconclusive results and toxic doses are left out.

For the test, the system named is L1210 leukemia ip in BDF1 mice, survival T/C. Kind of test: NCI In Vivo Anticancer Drug Screen. Data for tumor model L1210 Leukemia (intraperitoneal) in B6D2F1 (BDF1) mice. The conditions noted are these: endpoint: mean survival time, higher = longer survival. Put shortly: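 Transplantable tumor model; survival measured in treated vs vehicle control mice. Value = treated/control.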

Setting [1] is: dose: 100.0 mg/kg/injection, schedule: Q01DX009 (ip), vehicle: Klucel (hydroxypropylcellulose) (HPC).
The mark [2] stands for this setting: dose: 100.0 mg/kg/injection, schedule: Q04DX003 (ip), vehicle: Klucel (hydroxypropylcellulose) (HPC).
Setting [3] is: dose: 200.0 mg/kg/injection, schedule: Q01DX009 (ip), vehicle: Klucel (hydroxypropylcellulose) (HPC).
Where [4] appears, read: dose: 200.0 mg/kg/injection, schedule: Q04DX003 (ip), vehicle: Klucel (hydroxypropylcellulose) (HPC).
Where [5] appears, read: dose: 400.0 mg/kg/injection, schedule: Q01DX009 (ip), vehicle: Klucel (hydroxypropylcellulose) (HPC).
Where [6] appears, read: dose: 400.0 mg/kg/injection, schedule: Q04DX003 (ip), vehicle: Klucel (hydroxypropylcellulose) (HPC).
[7] abbreviates: dose: 50.0 mg/kg/injection, schedule: Q01DX001 (ip), vehicle: saline.
Where [8] appears, read: dose: 100.0 mg/kg/injection, schedule: Q01DX001 (ip), vehicle: saline.
Setting [9] is: dose: 200.0 mg/kg/injection, schedule: Q01DX001 (ip), vehicle: saline.
[10] abbreviates: dose: 400.0 mg/kg/injection, schedule: Q01DX001 (ip), vehicle: saline.
[11] abbreviates: dose: 100.0 mg/kg/injection, schedule: Q04DX002 (ip), vehicle: Klucel (hydroxypropylcellulose) (HPC).
Setting [12] is: dose: 200.0 mg/kg/injection, schedule: Q04DX002 (ip), vehicle: Klucel (hydroxypropylcellulose) (HPC).
Where [13] appears, read: dose: 400.0 mg/kg/injection, schedule: Q04DX002 (ip), vehicle: Klucel (hydroxypropylcellulose) (HPC).
Where [14] appears, read: dose: 100.0 mg/kg/injection, schedule: Q01DX009 (ip), vehicle: saline.
[15] abbreviates: dose: 200.0 mg/kg/injection, schedule: Q01DX009 (ip), vehicle: saline.
The mark [16] stands for this setting: dose: 400.0 mg/kg/injection, schedule: Q01DX009 (ip), vehicle: saline.
The mark [17] stands for this setting: dose: 75.0 mg/kg/injection, schedule: Q01DX001 (ip), vehicle: saline.

For the compound `O=C(c1ccccc1)c1c2ccccc2c(Br)c2ccccc12`, the T/C was 97 % of control under setting [1]; 100 % of control under setting [2]; 96 % of control under setting [3]; 95 % of control under setting [4]; 91 % of control under setting [5]; 89 % of control under setting [6].
As for `CC1(CCCC2C(=O)N(c3ccccc3)N(c3ccccc3)C2=O)OCCO1`, the T/C is, setting by setting: under setting [2], 104 % of control; under setting [4], 98 % of control; under setting [6], 94 % of control.
Take `O=C(Nc1ccc(C2=NCCN2)cc1)c1cc(C(=O)Nc2ccc(C3=NCCN3)cc2)cc([N+](=O)[O-])c1`: the T/C (dose: 111.0 mg/kg/injection, schedule: Q01DX Z (ip), vehicle: methylcellulose (MC)) was 100 % of control; the T/C (dose: 167.0 mg/kg/injection, schedule: Q01DX Z (ip), vehicle: methylcellulose (MC)) is 104 % of control; the T/C (dose: 250.0 mg/kg/injection, schedule: Q01DX Z (ip), vehicle: methylcellulose (MC)) was 105 % of control and 207 % of control; the T/C (dose: 375.0 mg/kg/injection, schedule: Q01DX Z (ip), vehicle: methylcellulose (MC)) was 168 % of control; the T/C (dose: 512.0 mg/kg/injection, schedule: Q01DX Z (ip), vehicle: methylcellulose (MC)) was 234 % of control; the T/C (dose: 768.0 mg/kg/injection, schedule: Q01DX Z (ip), vehicle: methylcellulose (MC)) was 268 % of control.
Regarding `O=C(O)/C(=N\Nc1ccccc1)c1ccccc1`, the T/C was 107 % of control under setting [7], 96 % of control under setting [8], 110 % of control under setting [9] and 90 % of control under setting [10].
Turning to `CCOC(=O)C(C(=O)Nc1ccccc1)=S(C)C`, the T/C is 94 % of control under setting [11], 106 % of control under setting [12] and 116 % of control under setting [13].
On to `C(=C\n1ccnc1)/c1ccccc1`, for which the T/C was 97 % of control (dose: 100.0 mg/kg/injection, schedule: Q04DX003 (ip), vehicle: gum acacia) and 87 % of control (dose: 200.0 mg/kg/injection, schedule: Q04DX003 (ip), vehicle: gum acacia).
For the compound `CC1CCOC(C)O1` (configuration not stated), the T/C reads like this: under setting [14], 103 % of control; (dose: 100.0 mg/kg/injection, schedule: Q04DX003 (ip), vehicle: saline) 100 % of control; under setting [15], 91 % of control; (dose: 200.0 mg/kg/injection, schedule: Q04DX003 (ip), vehicle: saline) 94 % of control; under setting [16], 96 % of control; (dose: 400.0 mg/kg/injection, schedule: Q04DX003 (ip), vehicle: saline) 94 % of control.
As to `Nc1ncnc(N)n1`, the T/C by setting is: (dose: 50.0 mg/kg/injection, schedule: Q01DX001 (ip), vehicle: carboxymethylcellulose (CMC)) 98 % of control; (dose: 100.0 mg/kg/injection, schedule: Q01DX001 (ip), vehicle: carboxymethylcellulose (CMC)) 101 % of control; (dose: 200.0 mg/kg/injection, schedule: Q01DX001 (ip), vehicle: carboxymethylcellulose (CMC)) 101 % of control.
With `CC(C)(C)C(=O)Nc1ccc(S(=O)(=O)c2ccc(NC(=O)C(C)(C)C)cc2)cc1`, the T/C is, setting by setting: under setting [7], 95 % of control; under setting [8], 93 % of control; under setting [9], 93 % of control; under setting [10], 98 % of control.
On to `O=C(O)CC(C(=O)O)C1C=CCC1` (configuration not stated), for which the T/C by setting is: under setting [14], 97 % of control; under setting [15], 115 % of control; under setting [16], 101 % of control.
With `Nc1nc2ncnc(N)c2nc1-c1ccc(N(CCO)CCO)cc1`, the T/C was 104 % of control under setting [8], 95 % of control under setting [9] and 100 % of control under setting [10].
In the case of `O=c1c2ccccc2sc2c1ccc1ccccc12`, the T/C by setting is: under setting [2], 100 % of control; under setting [4], 103 % of control; under setting [6], 96 % of control.
For the compound `CC1(C)CC(=O)C2C(C1)Nc1ccccc1NC2c1ccccc1[N+](=O)[O-]` (configuration not stated), the T/C was 103 % of control and 110 % of control under setting [11]; 98 % of control and 92 % of control under setting [12]; 95 % of control under setting [13].
For `COc1ccc2c(c1)CCC1=C2CCC2C(=O)OC(=O)C12C` (configuration not stated), the T/C is 98 % of control under setting [1]; 90 % of control under setting [2]; 95 % of control under setting [3]; 98 % of control under setting [4]; 101 % of control under setting [5]; 97 % of control under setting [6].
Take `O=c1cc(Nc2cccc(-c3ccccc3)c2)[nH]c(=O)[nH]1`: the T/C was 90 % of control (dose: 87.5 mg/kg/injection, schedule: Q01DX001 (ip), vehicle: gum acacia); 102 % of control (dose: 175.0 mg/kg/injection, schedule: Q01DX001 (ip), vehicle: gum acacia); 95 % of control (dose: 350.0 mg/kg/injection, schedule: Q01DX001 (ip), vehicle: gum acacia).
Take `CC(C)OC(=O)N1CCN(C(=O)OC(C)C)CC1`: the T/C by setting is: under setting [1], 97 % of control; under setting [11], 93 % of control; under setting [3], 94 % of control; under setting [12], 93 % of control; under setting [5], 102 % of control; under setting [13], 117 % of control.
As for `C[N+](C)(C)c1ccccn1`, under setting [17], the T/C is 102 % of control.
For `O=P(NN1CCCCC1)(NN1CCCCC1)c1ccccc1`, the T/C is 93 % of control (dose: 100.0 mg/kg/injection, schedule: Q01DX009 (ip), vehicle: carboxymethylcellulose (CMC)) and 93 % of control (dose: 200.0 mg/kg/injection, schedule: Q01DX009 (ip), vehicle: carboxymethylcellulose (CMC)).
Take `O=C(Nc1nc2ccccc2s1)c1ccc(C(=O)Nc2nc3ccccc3s2)cc1`: the T/C is, setting by setting: (dose: 100.0 mg/kg/injection, schedule: Q01DX001 (ip), vehicle: other) 93 % of control; (dose: 200.0 mg/kg/injection, schedule: Q01DX001 (ip), vehicle: other) 90 % of control; (dose: 400.0 mg/kg/injection, schedule: Q01DX001 (ip), vehicle: other) 91 % of control.
Turning to `N#CC1C(=O)c2ccccc2C1=O`, the T/C (dose: 25.0 mg/kg/injection, schedule: Q01DX009 (ip), vehicle: saline with Tween-80) was 92 % of control; the T/C (dose: 50.0 mg/kg/injection, schedule: Q01DX009 (ip), vehicle: saline with Tween-80) is 91 % of control; the T/C (dose: 100.0 mg/kg/injection, schedule: Q01DX009 (ip), vehicle: saline with Tween-80) is 89 % of control; the T/C (dose: 100.0 mg/kg/injection, schedule: Q04DX003 (ip), vehicle: saline with Tween-80) was 94 % of control.
As for `CCCCc1c(O)nc(NCCCC(N)C(=O)O)[nH]c1=O` (configuration not stated), the T/C reads like this: under setting [17], 93 % of control; (dose: 150.0 mg/kg/injection, schedule: Q01DX001 (ip), vehicle: saline) 95 % of control; (dose: 300.0 mg/kg/injection, schedule: Q01DX001 (ip), vehicle: saline) 96 % of control.
Consider `O=[N+]([O-])c1ccc(-c2ccc([N+](=O)[O-])cc2)cc1`, for which the T/C is 98 % of control under setting [11], 124 % of control under setting [12] and 95 % of control under setting [13].
As for `CN(C)CCN(Cc1ccccc1)c1ccccn1`, the T/C reads like this: (dose: 75.0 mg/kg/injection, schedule: Q01DX001 (ip), vehicle: carboxymethylcellulose (CMC)) 100 % of control; (dose: 150.0 mg/kg/injection, schedule: Q01DX001 (ip), vehicle: carboxymethylcellulose (CMC)) 95 % of control.
